Laboratory results reported in US5055484A, “7(1H-pyrrol-3-YL)-substituted 3,5-dihydroxyhept-6-enoic acids, 7-(1H-pyrrol-3-YL)-substituted 3,5-dihyroxyhept-anoic acids, their corresponding delta-lactones and salts, their use as medicaments and pharmaceutical products and intermediates” (Hoechst Aktiengesellschaft, priority 1987, dated 1991).

Columns and labels:
HMG--CoA reductase = target: T1, HMG--CoA reductase (Rattus norvegicus, UniProt P51639); test: inhibition of HMG-CoA reductase activity on solubilized enzyme preparations from rat liver microsomes; assay type: biochemical
T1 sequence (P51639 1-887): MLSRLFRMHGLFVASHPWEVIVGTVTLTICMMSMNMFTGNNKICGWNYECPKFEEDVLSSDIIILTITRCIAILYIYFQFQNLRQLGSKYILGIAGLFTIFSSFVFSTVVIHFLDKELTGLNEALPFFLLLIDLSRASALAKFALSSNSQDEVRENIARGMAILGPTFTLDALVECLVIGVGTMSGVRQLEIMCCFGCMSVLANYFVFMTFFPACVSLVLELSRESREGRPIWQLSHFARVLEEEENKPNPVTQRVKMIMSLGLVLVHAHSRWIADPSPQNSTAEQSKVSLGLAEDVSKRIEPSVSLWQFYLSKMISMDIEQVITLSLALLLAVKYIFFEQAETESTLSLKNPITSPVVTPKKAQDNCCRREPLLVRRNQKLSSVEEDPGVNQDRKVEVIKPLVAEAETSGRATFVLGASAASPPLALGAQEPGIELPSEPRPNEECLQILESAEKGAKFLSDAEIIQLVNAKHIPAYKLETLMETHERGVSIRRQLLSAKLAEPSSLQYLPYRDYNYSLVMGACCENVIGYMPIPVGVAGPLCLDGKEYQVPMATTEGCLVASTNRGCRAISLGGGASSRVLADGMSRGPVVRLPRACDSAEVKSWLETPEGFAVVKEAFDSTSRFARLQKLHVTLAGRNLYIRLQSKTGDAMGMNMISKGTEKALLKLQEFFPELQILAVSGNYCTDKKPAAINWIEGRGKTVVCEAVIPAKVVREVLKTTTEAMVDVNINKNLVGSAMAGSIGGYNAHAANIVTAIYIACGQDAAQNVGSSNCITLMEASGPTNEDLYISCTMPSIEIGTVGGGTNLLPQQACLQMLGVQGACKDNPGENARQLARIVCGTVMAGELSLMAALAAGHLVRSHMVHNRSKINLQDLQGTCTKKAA
Experimental: The inhibition of HMG--CoA reductase activity by the compounds of the general formulae I and II was determined on solubilized enzyme preparations from rat liver microsomes.
After a changeover in the day/night rhythm of the rats, enzyme production was induced with cholestyramine (®Cuemid) The substrate used was (S,R) ^14 C--HMG--CoA, and the concentration of NADPH was maintained by a regenerating system during the incubation. ^14 C-mevalonate was removed from substrate and other products (for example ^14 C--HMG) by column elution, with the elution profile of each individual sample being determined. Inclusion of ^3 H-mevalonate throughout was dispensed with because the data to be determined were of the relative inhibitory effect. In each test series the enzyme-free control, the enzyme-containing normal mixture (=100%) and those with added products were treated together. Each individual value was formed as the mean of 3 parallel samples. The t test was used to assess the significance of the differences between the means for product-free and productcontaining samples.

cholesterol biosynthesis = test: inhibition of cholesterol biosynthesis by incorporation of 14C-acetate into cholesterol in HEP G2 cell cultures; assay type: cell-based; conditions: for % potency relative to mevinolin sodium at IC70: comparison of IC70 with mevinolin sodium salt (internal standard)
Experimental: In addition, the inhibition of cholesterol biosynthesis by selected compounds was tested by the incorporation of ^14 C-precursor in cholesterol in cell cultures.
Monolayers of HEP G2 cells in lipoprotein-free nutrient medium were preincubated with various concentrations of the test substances for 1 hour. The ^14 C-labeled precursor sodium ^14 C-acetate was added, and the incubation was then continued for 3 hours. Subsequently 3H-cholesterol was added as internal standard, and a portion of these cells underwent alkaline hydrolysis. The lipids from the hydrolyzed cells were extracted with chloroform/methanol. Carrier cholesterol was added to this lipid mixture which was then subjected to preparative thin-layer chromatography, the cholesterol band was visualized with iodine vapor and then isolated, and the amount of ^14 C-cholesterol formed from the ^14 C-precursor was determined by scintigraphy. Cellular protein was determined in an aliquot of the cells, so that the amount of ^14 C-cholesterol formed from ^14 C-precursor in unit time per mg of cellular protein can be calculated. The solvent control is used for comparison of the inhibitory effect of an added test product, so that it is possible to state directly the inhibition of cholesterol biosynthesis at a particular molar concentration of the test product in the medium. The integrity of the cell culture and the absence of cell damage due to exposure to the products was checked morphologically (light microscope) in an aliquot of the cell cultures. […] The relative potency was determined by comparing the IC70 values and IC50 values for the test compound and for mevinolin sodium salt (internal standard).

[1] = HEP G2 cells, 1 h preincubation, 3 h with 14C-acetate

SMILES	IC50 (HMG--CoA reductase) [nM]	also measured
Cc1c(CC[C@@H](O)C[C@@H](O)CC(=O)[O-])c(-c2ccc(F)cc2)c(C)n1-c1ccccc1.[Na+] (racemic) [Example 4, Sodium 3(RS),5(RS)-dihydroxy-7-[1-phenyl-2,5-dimethyl-4-(4-fluorophenyl)-1H-pyrrol-3-yl]heptanoate]	8.7	% potency relative to mevinolin sodium at IC50 (cholesterol biosynthesis; HEP G2 cells, 1 h preincubation, 3 h with 14C-acetate, comparison of IC50 with mevinolin sodium salt (internal standard)): 450%; % potency relative to mevinolin sodium at IC70 (cholesterol biosynthesis; [1]): 51%
COC(=O)C[C@H](O)C[C@H](O)CCc1c(-c2ccc(F)cc2)cn(C(C)C)c1C (racemic) [Example 17, Methyl 3(RS),5(RS)-dihydroxy-7-[1-isopropyl-2-methyl-4-(4-fluorophenyl)-1H-pyrrol-3-yl]heptanoate]	100	–
Cc1c(/C=C/[C@@H](O)C[C@@H](O)CC(=O)O)c(-c2ccc(F)cc2)cn1C(C)C (relative stereo) [Example 16, Sodium 3(RS),5(SR)-dihydroxy-7-[1-isopropyl-2-methyl-4-(4-fluorophenyl)-1H-pyrrol-3-yl]hept-6(E)-enoate]	160	–
CC[C@H](C)C(=O)O[C@H]1C[C@@H](C)C=C2C=C[C@H](C)[C@H](CC[C@@H](O)C[C@@H](O)CC(=O)O)[C@H]21 [mevinolin sodium, reference compound]	–	IC70 (cholesterol biosynthesis; Homo sapiens, HepG2): 150 nM; IC50 (cholesterol biosynthesis; Homo sapiens, HepG2, HEP G2 cells, mean figure, varies somewhat from cell culture to cell culture): 50 nM
CC(C)c1c(/C=C/[C@@H](O)C[C@@H](O)CC(=O)O)c(-c2ccc(F)cc2)cn1C1CCCCC1 (relative stereo) [Example 20, Sodium 3(RS),5(SR)-dihydroxy-7-[1-cyclohexyl-2-isopropyl-4(4-fluorophenyl)-1H-pyrrol-3-yl]hept-6(E)-enoate]	12	–
COC(=O)C[C@H](O)C[C@H](O)CCc1c(-c2ccc(F)cc2)cn(-c2ccccc2)c1C(C)C (racemic) [Example 13, Methyl 3(RS),5(RS)-dihydroxy-7-[1-phenyl-2-isopropyl-4(4-fluorophenyl)-1H-pyrrol-3-yl]heptanoate]	15	–
COC(=O)C[C@H](O)C[C@H](O)/C=C/c1c(-c2ccc(F)cc2)cn(-c2ccccc2)c1C(C)C (relative stereo) [Example 11, methyl 3(RS),5(SR)-dihydroxy-7-[1-phenyl-2-isopropyl-4-(4-fluorophenyl)-1H-pyrrol-3-yl]hept-6(E)-enoate]	8	–
CC(C)c1c(CC[C@@H](O)C[C@@H](O)CC(=O)[O-])c(-c2ccc(F)cc2)cn1-c1ccccc1.[Na+] (racemic) [Example 14, Sodium 3(RS),5(RS)-dihydroxy-7-[1-phenyl-2-isopropyl-4-(4-fluorophenyl)-1H-pyrrol-3-yl]heptanoate]	3	% potency relative to mevinolin sodium at IC70 (cholesterol biosynthesis; [1]): 150%

Now from value to compound, other results behind:

IC50 (HMG--CoA reductase) [nM]	SMILES	also measured
120	COC(=O)C[C@H](O)C[C@H](O)/C=C/c1c(-c2ccc(F)cc2)cn(-c2ccccc2)c1C (relative stereo) [Example 9, methyl 3(RS),5(SR)-dihydroxy-7-[1-phenyl-2-methyl-4-(4-fluorophenyl)-1H-pyrrol-3-yl]hept-6(E)-enoate]	–
70	COC(=O)C[C@H](O)C[C@H](O)/C=C/c1c(-c2ccc(F)cc2)cn(C(C)C)c1C (relative stereo) [Example 15, methyl 3(RS),5(SR)-dihydroxy-7-[1-isopropyl-2-methyl-4-(4-fluorophenyl)-1H-pyrrol-3-yl]hept-6(E)-enoate]	–
3	CC(C)c1c(CC[C@@H](O)C[C@@H](O)CC(=O)O)c(-c2ccc(F)cc2)cn1C(C)C (racemic) [Example 26, Sodium 3(RS),5(RS)-dihydroxy-7-[1,2-diisopropyl-4-(4-fluorophenyl)-1H-pyrrol-3-yl]heptanoate]	–
80	COC(=O)C[C@H](O)C[C@H](O)CCc1c(-c2ccc(F)cc2)c(C)n(-c2ccccc2)c1C (racemic) [Example 3, Methyl 3(RS),5(RS)-dihydroxy-7-[1-phenyl-2,5-dimethyl-4-(4-fluorophenyl)-1H-pyrrol-3-yl]heptanoate]	–
50	Cc1c(CC[C@@H](O)C[C@@H](O)CC(=O)O)c(-c2ccc(F)cc2)cn1C(C)C (racemic) [Example 18, Sodium 3(RS),5(RS)-dihydroxy-7-[1-isopropyl-2-methyl-4-(4-fluorophenyl)-1H-pyrrol-3-yl]heptanoate]	–
7	COC(=O)C[C@H](O)C[C@H](O)/C=C/c1c(-c2ccc(F)cc2)c(C)n(-c2ccccc2)c1C(C)C (relative stereo) [Example 5, Methyl 3(RS),5(SR)-dihydroxy-7-[1-phenyl-2-isopropyl-4-(4-fluorophenyl)-5-methyl-1H-pyrrol-3-yl]hept-6(E)-enoate]	–
8	COC(=O)C[C@H](O)C[C@H](O)CCc1c(-c2ccc(F)cc2)c(C)n(-c2ccccc2)c1C(C)C (racemic) [Example 7, Methyl 3(RS),5(RS)-dihydroxy-7-[1-phenyl-2-isopropyl-4-(4-fluorophenyl)-5-methyl-1H-pyrrol-3-yl]heptanoate]	–
2.5	Cc1c(-c2ccc(F)cc2)c(CC[C@@H](O)C[C@@H](O)CC(=O)O)c(C(C)C)n1-c1ccccc1 (racemic) [Example 8, Sodium 3(RS),5(RS)-dihydroxy-7-[1-phenyl-2-isopropyl-4-(4-fluorophenyl)-5-methyl-1H-pyrrol-3-yl]heptanoate]	–
120	Cc1c(/C=C/[C@@H](O)C[C@@H](O)CC(=O)O)c(-c2ccc(F)cc2)c(C)n1-c1ccccc1 (relative stereo) [Example 2, Sodium 3(RS),5(SR)-dihydroxy-7-[1-phenyl-2,5-dimethyl-4-(4-fluorophenyl)-1H-pyrrol-3-yl]hept-6(E)-enoate]	–
320	COC(=O)C[C@H](O)C[C@H](O)/C=C/c1c(-c2ccc(F)cc2)c(C)n(-c2ccccc2)c1C (relative stereo) [Example 1, methyl 3(RS),5(SR)-dihydroxy-7-[1-phenyl-2,5-dimethyl-4-(4-fluorophenyl)-1H-pyrrol-3-yl]hept-6(E)-enoate]	% potency relative to mevinolin sodium at IC70 (cholesterol biosynthesis; [1]): 180%
